According to publication PMC11395145, “The Archetypal Gamma-Core Motif of Antimicrobial Cys-Rich Peptides Inhibits H^+-ATPases in Target Pathogens” (International Journal of Molecular Sciences, 2024):
Where a SMILES comes first, the peptide text is derived from it. Bridges are numbered along the chain shown (N, C = ends).

Legend:
[1] = tested on: Candida albicans ATCC 10231; assay: Microbicidal (spread-plate cell viability) assay, candidacidal activity; type: cell-based; conditions: for microbicidal (candidacidal) activity, in words: 90 min, 37 °C, Tris buffer pH 7.4, 10^6 cells/mL, CFU plating
Protocol: (§1) First, we tested the antimicrobial activity of Kal-1 and a shorter Kal-1-derived peptide (Kdp15), both containing the complete γ-core signature of human lactoferrin, against C. albicans and P. aeruginosa. Microbicidal (cidal) activity was determined after 90 min of incubation (37 °C; pH 7.4) with a range of concentrations of each hLf-derived peptide.
(§2) Figure 1 Cell viability and membrane permeabilization assays. C. albicans or P. aeruginosa (10^6 cells/mL) were incubated (90 min, 37 °C) with each peptide/protein at the indicated concentrations. Aliquots were plated on SDA or […], and colonies were counted after 24–48 h (C. albicans) or 24 h (P. aeruginosa). At each point, samples were stained with propidium iodide (PI) and intracellular PI incorporation, indicative of membrane permeabilization, was quantified by flow cytometry. The relative cell viability (blue lines) and cellular permeabilization (red lines) were calculated as the percentage of untreated cells. Human lactoferrin (hLf) and the peptide Lfpep were used as negative and positive controls of cellular permeabilization, respectively.
(§3) Microbial susceptibility to the peptides was determined in a spread-plate assay as described previously. Briefly, two-fold serially diluted peptides were incubated (37 °C) with approximately 10^6 cells/mL in Tris buffer (10 mM Tris-HCl, pH 7.4). After 90 min of incubation with the peptides, aliquots were removed and plated in duplicate on an appropriate agar plate for each species (SDA for C. albicans, TSA for P. aeruginosa). The plates were incubated for 24–48 h at 30 °C (C. albicans) or 24 h at 37 °C (P. aeruginosa) for enumeration. The cell viability values, expressed as colony forming units (CFUs), were determined relative to incubation without added peptides and represent the mean ± standard deviation (±SD) of at least three independent determinations. For inhibition assays, the cell suspensions were preincubated (15 min at 37 °C) with the corresponding inhibitors before the addition of peptides. Water-insoluble inhibitors were prepared in DMSO, such that the final assay volume was ≤1%. Other specific experimental inhibition conditions are described where appropriate. The IC50 value is expressed as the concentration that caused 50% reduction in viable counts.

[2] = tested on: Pseudomonas aeruginosa 10145 (PAO1); assay: Microbicidal (spread-plate cell viability) assay, pseudomonacidal activity; type: cell-based; conditions: for microbicidal (pseudomonacidal) activity, in words: 90 min, 37 °C, Tris buffer pH 7.4, 10^6 cells/mL, CFU plating
Protocol: as §1, §2, §3

C. albicans cells [3] = assay: Oxygen consumption measurement (Clark-type electrode); type: cell-based, Candida albicans; conditions: 5 × 10^6 cells/mL, peptides at IC50, piericidin A 32 μM, at least 30 min, 25 °C
Protocol: (§4) Figure 3 Effect of cellular respiration on the microbicidal activity of hLf γ-core-containing peptides. (A,C) Oxygen consumption was measured in C. albicans and P. aeruginosa cellular suspensions in the absence (control) or the presence of kaliocin-1 (Kal-1), Kdp15, or human lactoferrin (hLf), and piericidin A (positive control). (B,D) Effect of cellular respiration on the microbicidal activity of hLf γ-core-containing peptides. Cells (10^6 cells/mL) were pre-incubated (15 min, 37 °C) with 32 μM piericidin A and incubated for 90 min at 37 °C with the peptides hLf or BM2. The cell viability was determined by means of the plate counting method. The results are the mean ± SD from duplicates of at least three independent experiments. * p < 0.05, ** p < 0.01, and *** p < 0.001 were used.
(§5) C. albicans or P. aeruginosa cells were grown to the mid-logarithmic phase, washed twice in Tris buffer, and resuspended in the same buffer, as described in [9, 10]. Briefly, cells (5 × 10^6 cells/mL) were pre-incubated for 15 min at 37 °C with the peptides (IC50). […] Oxygen consumption was measured using a Clark-type oxygen electrode (Dual digital-model 20, Rank Brothers Ltd., Cambridge, UK) in a closed jacketed chamber maintained at 25 °C. […] The viability of the cells was determined at 30 min by removing aliquots from the oxygen chambers and plating the subsequent dilutions on SDA or TSA plates.

P. aeruginosa cells = assay: as above; type: cell-based, Pseudomonas aeruginosa; conditions: 5 × 10^6 cells/mL, peptides at IC50, piericidin A 32 μM, at least 30 min, 25 °C
Protocol: as §4, §5

C. albicans cells [4] = assay: Measurement of intracellular ATP (BacTiter-Glo); type: cell-based, Candida albicans; conditions: C. albicans 10^6 cells/mL, candidacidal concentration, 90 min, 37 °C; BM2 0.25 μM
Protocol: Total ATP was measured by using the BacTiter-Glo^TM Microbial Cell Viability Assay (Promega Co., Madison, WI, USA) according to the manufacturer’s instructions. […] Aliquots (100 μL) were incubated (90 min at 37 °C) with kaliocin-1, Kdp15, or human lactoferrin and the BM2 peptide (positive control). One hundred microliters of incubation mix was transferred into a 96-well opaque white plate, mixed with an equal volume of the BacTiter-Glo reagent, and incubated for 15 min in the dark. The reagent used a thermostable luciferase to produce luminescence in an ATP-dependent manner. The emitted luminescence was detected by using a Varioskan Flash multimode reader (Thermo Scientific, Waltham, MA, USA) with a 10 s of shaking and 1 s integration time. A calibration curve was prepared for each experiment, with ATP standards ranging from 1 to 1000 nM. For assays performed in the presence of the BM2 peptide, samples were preincubated with 0.25 μM BM2 for 30 min at 37 °C. All the tests were performed in triplicate at least four times.

[5] = tested on: Candida albicans ATCC 10231; conditions: used in control assays; cited from earlier work
Protocol: as §1, with “peptide. The hLf γ-core-containing peptides were microbicidal in a concentration-dependent way (Figure 1). […] The IC50 es ...” for “peptide.”

[6] = concentration range 0 to 100 μM

CC[C@H](C)[C@@H]1NC(=O)[C@H](C(C)C)NC(=O)[C@H](CC(C)C)NC(=O)CNC(=O)[C@H](C(C)C)NC(=O)[C@@H]2CCCN2C(=O)[C@H]([C@@H](C)CC)NC(=O)[C@@H]2CSSC[C@@H]3NC(=O)[C@H](C(C)C)NC(=O)CNC(=O)[C@H](CC(N)=O)NC(=O)[C@@H](NC(=O)[C@H](CO)NC(=O)[C@H](C)NC(C)=O)CSSC[C@H](NC(=O)[C@H](C)NC(=O)[C@H](CO)NC(=O)[C@H]([C@@H](C)O)NC(=O)CNC(=O)[C@H](CSSC[C@@H](C(=O)N[C@@H](CCCNC(=N)N)C(=O)N[C@@H](CC(N)=O)C(=O)N4CCC[C@H]4C(=O)N[C@@H](CO)C(=O)NCC(N)=O)NC(=O)[C@H](Cc4ccc(O)cc4)NC(=O)CNC1=O)NC(=O)[C@@H]1CCCN1C(=O)[C@@H]1CCCN1C(=O)[C@H](CCSC)NC(=O)[C@H](CCC(=O)O)NC(=O)[C@H](Cc1ccccc1)NC(=O)[C@@H]1CCCN1C(=O)[C@H](CO)NC3=O)C(=O)N[C@@H](CCCNC(=N)N)C(=O)N2 [PA1b] (Ac-ASCNGVCSPFEMPPCGTSACRCIPVGLVIGYCRNPSG-NH2; disulfide 3-20, 7-22, 15-32)
microbicidal (candidacidal) activity, in words [1]: showed candidacidal activity | microbicidal (pseudomonacidal) activity, in words [2]: not pseudomonacidal

C/C=C(\C)[C@H](O)[C@H](C)/C=C(C)/C=C/C/C(C)=C/Cc1nc(OC)c(OC)c(O)c1C [piericidin A, reference compound]
oxygen consumption of C. albicans in presence of the substance (C. albicans cells [3]): inhibited | oxygen consumption of P. aeruginosa in presence of the substance (P. aeruginosa cells): inhibited

CAGTGENKC [Kdp9]
antimicrobial activity, in words [1, 6]: not detected | antimicrobial activity, in words [2, 6]: not detected

D-NH2-RRRFWWFRRR-CONH2 [BM2, reference compound]
decrease of candidacidal activity by oligomycin A ([1]; 0.25 μM BM2, cells pre-incubated 15 min, 37 °C with 16 μg/mL oligomycin A): ~ 62% | effect of high external K^+ on candidacidal activity ([1]; Tris buffer with 50 mM KCl vs without): decreased | effect of respiration inhibition (piericidin A) on candidacidal activity ([1]; cells pre-incubated 15 min, 37 °C with 32 μM piericidin A, then 90 min with peptide): substantially inhibited | effect of Tok1p K^+ channel block (TEA^+) on candidacidal activity ([1]; cells pre-incubated 15 min with 10 mM TEA^+): significantly (p < 0.001) inhibited | increment in intracellular ATP (iATP) level compared to untreated control (C. albicans cells [4]): ~ 9 fold | previously reported microbicidal concentration (organism not given) [5]: 0.25 µM

GSKKPVPIIYCNRRTGKCQRM [Thanatin, complete 21-aa antimicrobial peptide from Podisus maculiventris (insect)]
microbicidal (candidacidal) activity, in words [1]: most potent | microbicidal (pseudomonacidal) activity, in words [2]: most potent

HCKNKEHLRSGRCRDDFRCWCT [PvD1, 22-aa γ-core fragment of defensin PvD1 from Phaseolus vulgaris (bean)]
microbicidal (pseudomonacidal) activity, in words [2]: showed pseudomonacidal activity
